Results published in the NIST ThermoML archive (doi:10.1021/je050402s).
± gives the expanded uncertainty stated by the source.

Test: xn = mol fraction of the nth substance listed
Conditions: 100.5 kPa, Liquid; for viscosity: Capillary tube (Ostwald / Ubbelohde) method

CCOC(=O)CC(C)=O [ethyl 3-oxobutanoate] + CCO
Conditions | mass density, 288.15 K [kg/m3] | mass density, 298.15 K [kg/m3] | mass density, 308.15 K [kg/m3] | mass density, 318.15 K [kg/m3] | viscosity, 288.15 K [mPa·s] | viscosity, 298.15 K [mPa·s] | viscosity, 308.15 K [mPa·s] | viscosity, 318.15 K [mPa·s]
x1 = 0.05 | 818.78 ± 0.41 | 809.91 ± 0.43 | 800.94 ± 0.44 | 791.8 ± 0.45 | 1.266 ± 0.014 | 1.042 ± 0.013 | 0.869 ± 0.013 | 0.731 ± 0.013
x1 = 0.1 | 841 ± 0.38 | 831.89 ± 0.4 | 822.68 ± 0.41 | 813.32 ± 0.42 | 1.204 ± 0.014 | 1.001 ± 0.013 | 0.841 ± 0.013 | 0.713 ± 0.013
x1 = 0.15 | 860.94 ± 0.36 | 851.63 ± 0.37 | 842.22 ± 0.39 | 832.67 ± 0.4 | 1.19 ± 0.014 | 0.99 ± 0.013 | 0.832 ± 0.013 | 0.709 ± 0.013
x1 = 0.2 | 878.93 ± 0.34 | 869.45 ± 0.35 | 859.89 ± 0.37 | 850.17 ± 0.38 | 1.194 ± 0.014 | 0.994 ± 0.013 | 0.837 ± 0.013 | 0.712 ± 0.013
x1 = 0.25 | 895.25 ± 0.32 | 885.63 ± 0.34 | 875.91 ± 0.35 | 866.05 ± 0.36 | 1.206 ± 0.014 | 1.003 ± 0.013 | 0.846 ± 0.013 | 0.721 ± 0.013
x1 = 0.3 | 910.15 ± 0.31 | 900.41 ± 0.32 | 890.57 ± 0.34 | 880.6 ± 0.35 | 1.226 ± 0.014 | 1.019 ± 0.013 | 0.86 ± 0.013 | 0.735 ± 0.013
x1 = 0.35 | 923.79 ± 0.31 | 913.94 ± 0.32 | 903.99 ± 0.33 | 893.92 ± 0.34 | 1.25 ± 0.014 | 1.038 ± 0.013 | 0.878 ± 0.013 | 0.751 ± 0.013
x1 = 0.4 | 936.31 ± 0.3 | 926.37 ± 0.31 | 916.34 ± 0.32 | 906.18 ± 0.34 | 1.28 ± 0.014 | 1.061 ± 0.014 | 0.898 ± 0.013 | 0.768 ± 0.013
x1 = 0.45 | 947.86 ± 0.3 | 937.83 ± 0.31 | 927.73 ± 0.32 | 917.49 ± 0.33 | 1.312 ± 0.014 | 1.087 ± 0.014 | 0.921 ± 0.013 | 0.789 ± 0.013
x1 = 0.5 | 958.56 ± 0.31 | 948.47 ± 0.31 | 938.29 ± 0.32 | 927.99 ± 0.33 | 1.349 ± 0.014 | 1.117 ± 0.014 | 0.947 ± 0.013 | 0.812 ± 0.013
x1 = 0.55 | 968.53 ± 0.31 | 958.37 ± 0.31 | 948.11 ± 0.32 | 937.75 ± 0.33 | 1.39 ± 0.015 | 1.151 ± 0.014 | 0.974 ± 0.013 | 0.836 ± 0.013
x1 = 0.6 | 977.79 ± 0.31 | 967.55 ± 0.32 | 957.24 ± 0.32 | 946.84 ± 0.33 | 1.435 ± 0.015 | 1.189 ± 0.014 | 1.004 ± 0.014 | 0.861 ± 0.013
x1 = 0.65 | 986.4 ± 0.32 | 976.13 ± 0.32 | 965.77 ± 0.33 | 955.36 ± 0.34 | 1.484 ± 0.015 | 1.227 ± 0.014 | 1.036 ± 0.014 | 0.888 ± 0.013
x1 = 0.7 | 994.51 ± 0.33 | 984.17 ± 0.33 | 973.79 ± 0.34 | 963.33 ± 0.34 | 1.536 ± 0.015 | 1.27 ± 0.014 | 1.073 ± 0.014 | 0.917 ± 0.013
x1 = 0.75 | 1002.07 ± 0.34 | 991.71 ± 0.34 | 981.29 ± 0.35 | 970.82 ± 0.35 | 1.591 ± 0.016 | 1.316 ± 0.015 | 1.112 ± 0.014 | 0.948 ± 0.013
x1 = 0.8 | 1009.18 ± 0.36 | 998.79 ± 0.36 | 988.36 ± 0.36 | 977.88 ± 0.36 | 1.65 ± 0.016 | 1.366 ± 0.015 | 1.154 ± 0.014 | 0.983 ± 0.014
x1 = 0.85 | 1015.85 ± 0.39 | 1005.46 ± 0.38 | 995.02 ± 0.37 | 984.54 ± 0.38 | 1.709 ± 0.016 | 1.415 ± 0.015 | 1.199 ± 0.014 | 1.018 ± 0.014
x1 = 0.9 | 1022.16 ± 0.41 | 1011.74 ± 0.4 | 1001.3 ± 0.39 | 990.84 ± 0.39 | 1.773 ± 0.017 | 1.471 ± 0.015 | 1.247 ± 0.015 | 1.059 ± 0.014
x1 = 0.95 | 1028.15 ± 0.43 | 1017.72 ± 0.42 | 1007.29 ± 0.41 | 996.82 ± 0.41 | 1.834 ± 0.017 | 1.524 ± 0.016 | 1.295 ± 0.015 | 1.103 ± 0.014
x1 = 1 | 1033.92 ± 0.45 | 1023.45 ± 0.44 | 1013 ± 0.43 | 1002.54 ± 0.43 | 1.902 ± 0.017 | 1.581 ± 0.016 | 1.344 ± 0.015 | 1.144 ± 0.014
